Test results from patent US10889573B2, “Anthelmintic quinoline-3-carboxamide derivatives” (Bayer Animal Health GMBH, priority 2016, dated 2021).

Key:
[1] = log P by HPLC on reversed phase columns (Method L0)
Protocol: Measurement of log P values was performed according to EEC directive 79/831 Annex V.A8 by HPLC (High Performance Liquid Chromatography) on reversed phase columns with the following methods: • ^[a] log P value is determined by measurement of LC-UV, in an acidic range, with 0.1% formic acid in water and acetonitrile as eluent (linear gradient from 10% acetonitrile to 95% acetonitrile). • ^[b] log P value is determined by measurement of LC-UV, in a neutral range, with 0.001 molar ammonium acetate solution in water and acetonitrile as eluent (linear gradient from 10% acetonitrile to 95% acetonitrile).
Calibration was done with straight-chain alkan-2-ones (with 3 to 16 carbon atoms) with known log P values (measurement of log P values using retention times with linear interpolation between successive alkanones).

[2] = system: Nippostrongylus brasiliensis; test: In vitro assay 2: Nippostrongylus brasiliensis (NIPOBR), acetylcholine esterase readout; conditions: 1 μg/ml, read-out: activity (reduction of AChE compared to negative control)
Summary of the method: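 Adult worms, washed in saline with antibiotics/antimycotic, were incubated in medium with compound (DMSO stock) at 10 μg/ml (10 ppm) or 1 μg/ml (1 ppm). Acetylcholine esterase activity in a medium aliquot was measured against a negative control as the anthelmintic readout.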

[3] = system: Dirofilaria immitis third-stage larvae; test: In vitro assay 4: Dirofilaria immitis (DIROIM L4), motility; conditions: 72 h, read-out: EC50 (reduction of motility)
C. elegans Slo-1a = C. elegans Slo-1a (Caenorhabditis elegans, UniProt Q95V25); conditions: pE50 (negative decadic logarithm of EC50), CHO cells expressing C. elegans Slo-1a, voltage sensitive dye
Sequence of C. elegans Slo-1a (Q95V25 whole entry): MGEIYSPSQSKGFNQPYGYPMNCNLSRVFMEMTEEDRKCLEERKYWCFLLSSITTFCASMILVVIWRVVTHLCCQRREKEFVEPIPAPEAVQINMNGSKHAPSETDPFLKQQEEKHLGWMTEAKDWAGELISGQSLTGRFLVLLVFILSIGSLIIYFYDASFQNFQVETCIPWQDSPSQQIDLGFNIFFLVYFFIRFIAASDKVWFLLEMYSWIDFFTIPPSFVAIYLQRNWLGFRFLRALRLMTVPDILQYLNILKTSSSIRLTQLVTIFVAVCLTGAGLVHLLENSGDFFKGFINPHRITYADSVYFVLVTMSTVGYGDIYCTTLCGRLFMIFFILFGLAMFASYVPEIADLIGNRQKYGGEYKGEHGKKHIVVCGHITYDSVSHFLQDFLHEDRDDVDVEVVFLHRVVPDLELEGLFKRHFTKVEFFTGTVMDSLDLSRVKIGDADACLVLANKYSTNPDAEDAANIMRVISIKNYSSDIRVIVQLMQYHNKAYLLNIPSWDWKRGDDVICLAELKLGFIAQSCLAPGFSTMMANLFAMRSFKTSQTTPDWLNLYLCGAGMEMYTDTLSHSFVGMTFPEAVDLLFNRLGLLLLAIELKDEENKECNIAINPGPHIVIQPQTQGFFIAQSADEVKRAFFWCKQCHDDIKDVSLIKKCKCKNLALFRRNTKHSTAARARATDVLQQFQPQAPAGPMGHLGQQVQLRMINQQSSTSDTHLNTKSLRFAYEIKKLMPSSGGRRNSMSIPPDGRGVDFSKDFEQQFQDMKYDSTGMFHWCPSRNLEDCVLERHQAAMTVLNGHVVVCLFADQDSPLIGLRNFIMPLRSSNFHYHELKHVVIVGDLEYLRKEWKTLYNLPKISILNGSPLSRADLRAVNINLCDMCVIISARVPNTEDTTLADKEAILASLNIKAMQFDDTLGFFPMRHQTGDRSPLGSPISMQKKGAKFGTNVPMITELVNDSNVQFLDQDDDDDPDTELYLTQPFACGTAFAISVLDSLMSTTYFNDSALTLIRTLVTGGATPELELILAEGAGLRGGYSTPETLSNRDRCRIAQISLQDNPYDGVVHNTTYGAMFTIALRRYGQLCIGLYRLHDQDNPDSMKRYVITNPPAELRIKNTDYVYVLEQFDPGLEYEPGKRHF
Protocol: In Vitro Assay 1: C. elegans Slo-1a—Action at a Recombinant C. elegans Cell Line
Cells were cultured at 37° C. and 5% CO2 in MEMalpha with Gutamax I (Invitrogen, Nr.: 32571), supplemented with 10% (v/v) heat inactivated fetal bovine serum (Invitrogen, Nr.: 10500), G418 (1 mg/ml, Invitrogen, Nr.: 10131). Cells were detached using Accutase (Sigma, Nr.: A6964).
Membrane Potential Measurements
Laboratory compound testing was performed on 384-well microtiter plates (MTPs, Greiner, Nr.: 781092). 8000 cells/well were plated onto 384-well MTPs and cultured for 20 to 24 hours at 37° C. and 5% CO2. After removal of the cell culture medium, the cells were washed once with tyrode (150 mM NaCl, 0.3 mM KCl, 2 mM CaCl2, 1 mM MgCl2, 0.8 mM NaH2PO4, 5 mM Glucose, 28 mM Hepes, pH 7.4) and then loaded with the voltage sensitive dye of the Membrane Potential Assay Kit diluted in tyrode for 1 h at room temperature.
After starting the measurement of fluorescence using a FLIPR Tetra (Molecular Devices, Exc. 510-545 nm, Emm. 565-625 nm), test compounds were added followed by the addition of KCl tyrode (final assay concentration: 70 mM KCl, 2 mM CaCl2, 1 mM MgCl2, 0.8 mM NaH2PO4, 5 mM Glucose, 28 mM Hepes, pH 7.4, including the voltage sensitive dye). The measurement was completed after 7 minutes.
The data were evaluated by using the ActivityBase XLfit software (IDBS) for curve fitting and calculation of the half-maximal effective concentration (EC50) and are reported as negative decadic logarithm (pE50).

Haemonchus contortus = conditions: 120 h, read-out: activity (larval mortality)
Protocol: In Vitro Assay 7: Haemonchus contortus (HAEMCO L3)
Solvent: dimethyl sulfoxide
Approximately 40 larvae of the red stomach worm (Haemonchus contortus) are transferred into a test tube containing compound solution.
After 5 days the percentage of larval mortality is recorded. 100% efficacy means all larvae are killed, 0% efficacy means no larvae are killed.

Cooperia curticei = conditions: Cooperia curticei, 120 h, read-out: activity (larval mortality)
Protocol: In Vitro Assay 6: Cooperia curticei (COOPCU L3)
Solvent: dimethyl sulfoxide
Approximately 40 nematode larvae (Cooperia curticei) are transferred into a test tube containing the compound solution.
After 5 days percentage of larval mortality is recorded. 100% efficacy means all larvae are killed; 0% efficacy means no larvae are killed.

[4] = system: Dirofilaria immitis microfilariae; test: In vitro assay 3: Dirofilaria immitis microfilariae (DIROIM L1), motility; conditions: 72 h, read-out: EC50 (reduction of motility), 72 h incubation
[5] = acidic range, 0.1% formic acid in water / acetonitrile
[6] = HPLC on reversed phase columns, Method L0

SMILES: CCOC(=O)c1cnc2c(-c3cc(F)cc(F)c3F)cccc2c1N(C)C [Example 1U-5]
- logP (Method L0)[a] [1, 5]: 2.40

SMILES: CCOC(=O)c1cnc2c(-c3cc(Cl)cc(Cl)c3Cl)c(F)ccc2c1N(C)C [Example 1U-8]
- logP (Method L0)[a] [1, 5]: 4.57

SMILES: CCOC(=O)c1cnc2c(-c3cc(F)cc(F)c3F)c(F)ccc2c1N(C)C [Example 1U-11]
- logP (Method L0)[a] [1, 5]: 2.40

SMILES: CCOC(=O)c1cnc2c(-c3cc(Cl)cc(Cl)c3)cccc2c1N1CCOCC1 [Example 1U-13]
- logP (Method L0)[a] [1, 5]: 5.19

SMILES: CCOC(=O)c1cnc2c(-c3cccc(Cl)c3Cl)cccc2c1N1CCOCC1 [Example 1U-15]
- logP (Method L0)[a] [1, 5]: 3.90

SMILES: O=C(O)c1cnc2c(-c3cccc(Cl)c3Cl)cccc2c1N1CCOCC1 [Example 1W-15]
- logP (Method L0)[a] [1, 5]: 1.86

SMILES: CN(C)c1c(C(=O)N[C@H]2CCOc3ccccc32)cnc2c(-c3cc(Cl)cc(Cl)c3)cccc12 [Example 8]
- logP (Method L0)[a] [1, 6]: 2.53

SMILES: Nc1c(C(=O)N[C@H]2CCOc3ccccc32)cnc2c(-c3cc(Cl)cc(Cl)c3)cccc12 [Example 58]
- logP (Method L0)[a] [1, 6]: 2.11

SMILES: CN(C)CCNc1c(C(=O)N[C@H]2CCc3ccccc32)cnc2c(-c3cc(Cl)cc(Cl)c3)cccc12 [Example 88]
- logP (Method L0)[a] [1, 6]: 1.3

SMILES: COCCNc1c(C(=O)N[C@H]2CCc3ccccc32)cnc2c(-c3cc(Cl)cc(Cl)c3)cccc12 [Example 89]
- logP (Method L0)[a] [1, 6]: 2.2

SMILES: CCN(CCOC)c1c(C(=O)N[C@H]2CCc3ccccc32)cnc2c(-c3cc(Cl)cc(Cl)c3)cccc12 [Example 90]
- logP (Method L0)[a] [1, 6]: 4.9

SMILES: COC[C@@H]1CCCN1c1c(C(=O)N[C@H]2CCc3ccccc32)cnc2c(-c3cc(Cl)cc(Cl)c3)cccc12 [Example 91]
- logP (Method L0)[a] [1, 6]: 2.9

SMILES: COC[C@H]1CCCN1c1c(C(=O)N[C@H]2CCc3ccccc32)cnc2c(-c3cc(Cl)cc(Cl)c3)cccc12 [Example 92]
- logP (Method L0)[a] [1, 6]: 2.9

SMILES: O=C(N[C@H]1CCc2ccccc21)c1cnc2c(-c3cc(Cl)cc(Cl)c3)cccc2c1NCCN1CCCC1 [Example 96]
- logP (Method L0)[a] [1, 6]: 1.4

SMILES: O=C(N[C@H]1CCc2ccccc21)c1cnc2c(-c3cc(Cl)cc(Cl)c3)cccc2c1NCc1ccccn1 [Example 99-1]
- logP (Method L0)[a] [1, 6]: 2.2

SMILES: CCC(CO)Nc1c(C(=O)NC2CCc3ccccc32)cnc2c(-c3cc(Cl)cc(Cl)c3)cccc12 (stereo not shown) [Example 99-2]
- logP (Method L0)[a] [1, 6]: 2.1

SMILES: O=C(N[C@H]1CCc2ccccc21)c1cnc2c(-c3cc(Cl)cc(Cl)c3)cccc2c1NCCO [Example 100]
- logP (Method L0)[a] [1, 6]: 1.9

SMILES: O=C(N[C@H]1CCc2ccccc21)c1cnc2c(-c3cc(Cl)cc(Cl)c3)cccc2c1N1CC[C@@H](O)C1 [Example 101]
- logP (Method L0)[a] [1, 6]: 1.8

SMILES: CN(CC1CC1)c1c(C(=O)N[C@H]2CCc3ccccc32)cnc2c(-c3cc(Cl)cc(Cl)c3)cccc12 [Example 106]
- logP (Method L0)[a] [1, 6]: 3.7

SMILES: O=C(N[C@H]1CCc2ccccc21)c1cnc2c(-c3cc(Cl)cc(Cl)c3)cccc2c1N1CCC(F)(F)C1 [Example 112]
- logP (Method L0)[a] [1, 6]: 2.6

SMILES: CC(=O)N1CCN(c2c(C(=O)N[C@H]3CCc4ccccc43)cnc3c(-c4cc(Cl)cc(Cl)c4)cccc23)CC1 [Example 116]
- logP (Method L0)[a] [1, 6]: 3.4

SMILES: CN(C)C(=O)CCNc1c(C(=O)N[C@H]2CCc3ccccc32)cnc2c(-c3cc(Cl)cc(Cl)c3)cccc12 [Example 122]
- logP (Method L0)[a] [1, 6]: 2

SMILES: O=C(N[C@H]1CCc2ccccc21)c1cnc2c(-c3cc(Cl)cc(Cl)c3)cccc2c1NCCn1cccn1 [Example 125]
- logP (Method L0)[a] [1, 6]: 2.1

SMILES: C[C@H](Nc1c(C(=O)N[C@H]2CCc3ccccc32)cnc2c(-c3cc(Cl)cc(Cl)c3)cccc12)C(N)=O [Example 127]
- logP (Method L0)[a] [1, 6]: 1.9

SMILES: COC(=O)CNc1c(C(=O)N[C@H]2CCc3ccccc32)cnc2c(-c3cc(Cl)cc(Cl)c3)cccc12 [Example 128]
- logP (Method L0)[a] [1, 6]: 2.1

SMILES: NC(=O)CNc1c(C(=O)N[C@H]2CCc3ccccc32)cnc2c(-c3cc(Cl)cc(Cl)c3)cccc12 [Example 129]
- logP (Method L0)[a] [1, 6]: 1.8

SMILES: O=C(N[C@H]1CCOc2ccccc21)c1cnc2c(-c3cc(Cl)cc(Cl)c3)cccc2c1Nc1ccncc1 [Example 136]
- logP (Method L0)[a] [1, 6]: 2.1

SMILES: CN(CCO)c1c(C(=O)N[C@H]2CCOc3ccccc32)cnc2c(-c3cc(Cl)cc(Cl)c3)cccc12 [Example 138]
- logP (Method L0)[a] [1, 6]: 2.7

SMILES: COc1ccc2c(c1)[C@@H](NC(=O)c1cnc3c(-c4cc(Cl)cc(Cl)c4)cccc3c1N(C)C)CCO2 [Example 147]
- logP (Method L0)[a] [1, 6]: 2.76

SMILES: CN(CCN1CCOCC1)c1c(C(=O)N[C@H]2CCOc3ccccc32)cnc2c(-c3cc(Cl)cc(Cl)c3)cccc12 [Example 149]
- logP (Method L0)[a] [1, 6]: 2.2

SMILES: CN(C)c1c(C(=O)N[C@H]2CCOc3cc(F)ccc32)cnc2c(-c3cc(Cl)cc(Cl)c3)cccc12 [Example 152]
- logP (Method L0)[a] [1, 6]: 3

SMILES: CCNc1c(C(=O)N[C@H]2CCOc3ccccc32)cnc2c(-c3cc(Cl)cc(Cl)c3)cccc12 [Example 153]
- logP (Method L0)[a] [1, 6]: 2.1

SMILES: CC(C)(C)OC(=O)CNc1c(C(=O)N[C@H]2CCOc3ccccc32)cnc2c(-c3cc(Cl)cc(Cl)c3)cccc12 [Example 182]
- logP (Method L0) [1, 6]: 3.3

SMILES: CN(CC(=O)OC(C)(C)C)c1c(C(=O)N[C@H]2CCOc3ccccc32)cnc2c(-c3cc(Cl)cc(Cl)c3)cccc12 [Example 183]
- logP (Method L0) [1, 6]: 6

SMILES: CCCNc1c(C(=O)N[C@H]2CCOc3ccccc32)cnc2c(-c3cc(Cl)cc(Cl)c3)cccc12 [Example 184]
- logP (Method L0) [1, 6]: 3

SMILES: NCCNc1c(C(=O)N[C@H]2CCOc3ccccc32)cnc2c(-c3cc(Cl)cc(Cl)c3)cccc12 [Example 185]
- logP (Method L0) [1, 6]: 2

SMILES: CON(C)c1c(C(=O)N[C@H]2CCOc3ccccc32)cnc2c(-c3ccccc3Cl)cccc12 [Example 248]
- logP (Method L0) [1, 6]: 3.41

SMILES: CON(C)c1c(C(=O)N[C@H]2CCOc3ccccc32)cnc2c(-c3cccc(Cl)c3Cl)cccc12 [Example 249]
- logP (Method L0) [1, 6]: 3.99

SMILES: CON(C)c1c(C(=O)N[C@H]2CCOc3ccccc32)cnc2c(-c3cc(Cl)cc(Cl)c3)cccc12 [Example 250]
- logP (Method L0) [1, 6]: 4.87

SMILES: CN(c1c(C(=O)N[C@H]2CCOc3ccccc32)cnc2c(-c3ccccc3Cl)cccc12)C1CC1 [Example 252]
- logP (Method L0) [1, 6]: 2.23

SMILES: CN(c1c(C(=O)N[C@H]2CCOc3ccccc32)cnc2c(-c3cccc(Cl)c3Cl)cccc12)C1CC1 [Example 253]
- logP (Method L0) [1, 6]: 2.8

SMILES: CN(c1c(C(=O)N[C@H]2CCOc3ccccc32)cnc2c(-c3cc(Cl)cc(Cl)c3)cccc12)C1CC1 [Example 254]
- logP (Method L0) [1, 6]: 3.81

SMILES: CCOP(=O)(CN(C)c1c(C(=O)N[C@H]2CCOc3ccccc32)cnc2c(-c3cc(Cl)cc(Cl)c3)cccc12)OCC [Example 285]
- logP (Method L0) [1, 6]: 4.62

SMILES: O=C(N[C@H]1CCOc2ccccc21)c1cnc2c(-c3cc(Cl)cc(Cl)c3)cccc2c1N1CC2CC(C1)O2 [Example 300]
- logP (Method L0) [1, 6]: 2.6

SMILES: O=C(N[C@H]1CCOc2ccccc21)c1cnc2c(-c3cc(Cl)cc(Cl)c3)cccc2c1N1CC2COCC(C1)O2 [Example 301]
- logP (Method L0) [1, 6]: 3.3

SMILES: Cn1c(=O)n(C)n(-c2c(C(=O)N[C@H]3CCOc4ccccc43)cnc3c(-c4cccc(Cl)c4Cl)cccc23)c1=O [Example 321]
- logP (Method L0)^[a] [1, 6]: 3.37

SMILES: CN(CCN1CCCC1=O)c1c(C(=O)N[C@H]2CCOc3ccccc32)cnc2c(-c3cc(Cl)cc(Cl)c3)cccc12 [Example 328]
- logP (Method L0)^[a] [1, 6]: 3.3

SMILES: O=C(N[C@H]1CCOc2ccccc21)c1cnc2c(-c3cc(Cl)cc(Cl)c3)cccc2c1C1CC1 [Example 358]
- logP (Method L0)^[a] [1, 6]: 4.9

SMILES: CCSc1c(C(=O)N[C@H]2CCOc3ccccc32)cnc2c(-c3cccc(Cl)c3Cl)cccc12 [Example 366]
- logP (Method L0)^[a] [1, 6]: 4.79

SMILES: CCSc1c(C(=O)N[C@H]2CCOc3ccccc32)cnc2c(-c3cc(Cl)cc(Cl)c3)cccc12 [Example 367]
- logP (Method L0)^[a] [1, 6]: 5.48

SMILES: CN(C)c1c(C(=O)N[C@H]2CCOc3ccccc32)cnc2c(-c3cc(Cl)ncc3Cl)cccc12 [Example 415]
- inhibition at 1 µg/mL [2]: > 80%
- EC50 [3]: < 0.1 µg/mL
- EC50 (C. elegans Slo-1a): < 3.16 nM
- mortality at 4 ppm (Haemonchus contortus): 90%
- mortality at 20 ppm (Haemonchus contortus): 100%
- mortality at 4 ppm (Cooperia curticei): 100%
- mortality at 20 ppm (Cooperia curticei): 100%
- EC50 [4]: < 0.1 µg/mL

SMILES: COc1ccc(-c2cc(Cl)cc(Cl)c2)c2ncc(C(=O)N[C@H]3CCOc4ccccc43)c(N(C)C)c12 [Example 504]
- inhibition at 1 µg/mL [2]: > 80%
- EC50 [3]: < 0.1 µg/mL
- EC50 (C. elegans Slo-1a): < 3.16 nM
- mortality at 4 ppm (Haemonchus contortus): 100%
- mortality at 20 ppm (Haemonchus contortus): 100%
- mortality at 4 ppm (Cooperia curticei): 100%
- mortality at 20 ppm (Cooperia curticei): 100%
- EC50 [4]: < 0.1 µg/mL

SMILES: CCc1c(C(=O)N[C@H]2CCOc3ccccc32)cnc2c(-c3cc(Cl)cc(Cl)c3Cl)cccc12 [Example 573]
- inhibition at 1 µg/mL [2]: > 80%
- EC50 [3]: < 0.1 µg/mL
- EC50 (C. elegans Slo-1a): 3.16 to 31.6 nM
- mortality at 4 ppm (Haemonchus contortus): 100%
- mortality at 20 ppm (Haemonchus contortus): 100%
- mortality at 4 ppm (Cooperia curticei): 100%
- mortality at 20 ppm (Cooperia curticei): 100%
- EC50 [4]: < 0.1 µg/mL

SMILES: O=C(N[C@H]1CCOc2ccccc21)c1cnc2c(-c3cc(F)cc(F)c3F)cccc2c1C1COC1 [Example 660, N-[(4S)-3,4-dihydro-2H-chromen-4-yl]-4-(oxetan-3-yl)-8-(2,3,5-trifluorophenyl)quinoline-3-carboxamide]
- inhibition at 1 µg/mL [2]: > 80%
- EC50 [3]: < 0.1 µg/mL
- EC50 (C. elegans Slo-1a): < 3.16 nM
- mortality at 4 ppm (Haemonchus contortus): 100%
- mortality at 20 ppm (Haemonchus contortus): 100%
- mortality at 4 ppm (Cooperia curticei): 100%
- mortality at 20 ppm (Cooperia curticei): 100%
- EC50 [4]: < 0.1 µg/mL
